In PMC11740121 (ACS Omega, 2025):

Target: PRMT5 (protein arginine methyltransferase 5) (Homo sapiens, UniProt O14744)
Test: SPR with immobilized PRMT5 N-terminal TIM barrel
Assay type: binding

PRMT5 (protein arginine methyltransferase 5), sequence (O14744 1-292): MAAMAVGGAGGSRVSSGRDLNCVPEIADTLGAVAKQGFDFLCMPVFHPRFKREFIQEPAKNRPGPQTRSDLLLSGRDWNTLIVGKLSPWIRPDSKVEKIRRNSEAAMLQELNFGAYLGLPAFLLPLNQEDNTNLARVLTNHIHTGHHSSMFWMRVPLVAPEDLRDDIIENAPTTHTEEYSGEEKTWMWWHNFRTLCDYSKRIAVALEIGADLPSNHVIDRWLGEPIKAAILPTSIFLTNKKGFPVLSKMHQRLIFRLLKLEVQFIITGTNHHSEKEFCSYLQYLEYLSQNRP

`O=C(Cc1csc(-c2ccc(C(F)(F)F)cc2)n1)Nc1ccc2oc(=O)[nH]c2c1` [Z319334062] gave a Kd of 21.5 µM.
